Data: paper PMC5424463, “A strategy based on nucleotide specificity leads to a subfamily-selective and cell-active inhibitor of N ^6-methyladenosine demethylase FTO” (Chemical Science, 2014)
Counter-ions that a name gives are not always drawn. Like-named read-outs stand apart in the source and are kept apart here.

Tests used:
[1] = target: T1, FTO (Homo sapiens, UniProt Q9C0B1); experiment: Differential scanning fluorimetry (DSF)-based binding assay, FTO; settings: 100 μM compound, 2 μM protein; for Tm shift (FTO): 50 μM MnCl2; for ΔTm at 100 µM: 50 μM MnCl2, read-out: Tm shift (FTO)
T1 construct: The human full length FTO construct used in this study; made in house; host or cells: E. coli BL21 (DE3) Rosetta T1R
Protocol: (§1) Superdex-200 column (GE Healthcare) pre-equilibrated with 20 mM HEPES, pH 7.5, 300 mM NaCl, 10% (v/v) glycerol, 0.5 mM TCEP. […]
(§2) Differential scanning fluorimetry (DSF)-based binding assay
(§3) DSF-based binding assay was performed using a MiniOpticon™ Real-Time PCR Detection System (Bio-Rad), monitoring protein unfolding using SYPRO orange (Invitrogen) according […]
(§4) to the reported method.[16] […]
(§5) and emission respectively. Reaction mixes contained 2 μM protein, 50 μM MnCl2, 100 μM […]
(§6) Reagents were prepared in 50mM
(§7) HEPES buffer, pH 7.5 except metals, which were dissolved as 100 mM stocks in 20 mM HCl, then further diluted in MilliQ water. Compounds tested were prepared in 100% DMSO and added such that the final concentration of DMSO was not more than 1% v/v of assay […]
(§8) increased linearly by 1°C min -1. The software provided was used to perform global minimum subtraction. The inflection point, representing Tm, was calculated by fitting the Boltzmann equation to the sigmoidal curves obtained; data were processed using GraphPad Prism 6.0™.
(§9) The Tm shift caused by the addition of small molecules/ fragments was determined by subtraction of the “reference” Tm (protein incubated with metal and 1% v/v DMSO) from the Tm obtained in the presence of the compound. […]

[2] = target: T2, ALKBH2 (Homo sapiens, UniProt Q6NS38); experiment: Differential scanning fluorimetry (DSF)-based binding assay, ALKBH2; settings: DSF, 100 μM compound, 2 μM protein, 50 μM MnCl2; for ΔTm at 100 µM: read-out: Tm shift (ALKBH2)
T2 construct: made in house; host or cells: E. coli BL21 (DE3)
T2 sequence (Q6NS38 56-258): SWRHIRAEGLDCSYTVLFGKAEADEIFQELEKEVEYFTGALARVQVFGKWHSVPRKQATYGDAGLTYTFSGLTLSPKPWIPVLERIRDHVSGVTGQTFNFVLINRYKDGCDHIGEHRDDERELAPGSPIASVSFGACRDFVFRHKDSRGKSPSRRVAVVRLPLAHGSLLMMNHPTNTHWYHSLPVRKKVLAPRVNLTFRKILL
Protocol: as §1, §2
(§10) DSF-based binding assay was performed using a MiniOpticon™ Real-Time PCR Detection System (Bio-Rad), monitoring protein unfolding using SYPRO orange (Invitrogen) according to the reported method.[16] FAM (492 nm) and ROX (610 nm) filters were used for excitation and emission respectively. Reaction mixes contained 2 μM protein, 50 μM MnCl2, 100 μM compounds, 5x SYPRO orange in a final volume of 50 μl. Reagents were prepared in 50mM HEPES buffer, pH 7.5 except metals, which were dissolved as 100 mM stocks in 20 mM HCl, then further diluted in MilliQ water. Compounds tested were prepared in 100% DMSO and added such that the final concentration of DMSO was not more than 1% v/v of assay […]
as §8, with “mix. Fluorescence readings were taken every 1°C in the range 25-95°C, with the temperature increased” for “increased”
(§11) The Tm shift caused by the addition of small molecules/ fragments was determined by subtraction of the “reference” Tm (protein incubated with metal and 1% v/v DMSO) from the Tm obtained in the presence of the compound. The assay was performed in triplicate for each inhibitor, with standard deviations typically < 1°C. […]

[3] = target: T3, AlkB (Escherichia coli, UniProt P05050); experiment: Differential scanning fluorimetry (DSF)-based binding assay, AlkB; settings: 100 μM compound, 2 μM protein; for Tm shift (AlkB): 50 μM MnCl2; for ΔTm at 100 µM: 50 μM MnCl2, read-out: Tm shift (AlkB)
T3 construct: made in house; host or cells: E. coli BL21 (DE3) Rosetta T1R
Protocol: as §1, §2, §10
as §8, with “mix. Fluorescence readings were taken every 1°C in the range 25-95°C, with the temperature increased” for “increased”
as §11

[4] = target: T4, ALKBH5 (Homo sapiens, UniProt Q6P6C2); experiment: Differential scanning fluorimetry (DSF)-based binding assay, ALKBH5; settings: 100 μM compound, 2 μM protein; for Tm shift (ALKBH5): 50 μM MnCl2; for ΔTm at 100 µM: 50 μM MnCl2, read-out: Tm shift (ALKBH5)
T4 construct: pNIC28-Bsa4 ALKBH5 (encompassing residues 66-292); made in house; host or cells: E. coli BL21 (DE3) Rosetta T1R
Protocol: as §1, §2, §3, §4, §5, §6, §7, §8, §9

[5] = target: T5, ALKBH3 (Homo sapiens, UniProt Q96Q83); experiment: Differential scanning fluorimetry (DSF)-based binding assay, ALKBH3; settings: DSF, 100 μM compound, 2 μM protein, 50 μM MnCl2; for ΔTm at 100 µM: read-out: Tm shift (ALKBH3)
T5 construct: Human ALKBH3 (encompassing residues 1- 286); purchased ProSpec-Tany Technogene Ltd, Israel
T5 sequence (Q96Q83 1-286): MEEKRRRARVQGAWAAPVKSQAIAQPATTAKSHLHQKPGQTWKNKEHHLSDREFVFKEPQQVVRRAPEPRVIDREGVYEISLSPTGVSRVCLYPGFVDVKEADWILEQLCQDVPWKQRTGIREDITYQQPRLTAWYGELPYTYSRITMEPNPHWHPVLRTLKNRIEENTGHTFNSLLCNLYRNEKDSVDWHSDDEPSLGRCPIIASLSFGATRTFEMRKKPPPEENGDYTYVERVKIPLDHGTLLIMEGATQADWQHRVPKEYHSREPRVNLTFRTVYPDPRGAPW
Protocol: as §1, §2, §10
as §8, with “mix. Fluorescence readings were taken every 1°C in the range 25-95°C, with the temperature increased” for “increased”
as §11

[6] = target: T1, FTO; experiment: HPLC-based inhibition assay for FTO, m3T substrate; format: biochemical
Protocol: HPLC-based inhibition assays for FTO
The assay was modified from previously reported method.[17] It is performed in triplicate for each inhibitor, in a final reaction volume of 25 µL. Reaction consisted of FTO (1 µM), 2OG (50 µM), (NH4)2Fe(SO4)2·6H2O (50 µM), L-ascorbate (2 mM), 3-methylthymidine (m3T substrate, 10 µM) in 50 mM HEPES buffer, pH 7.5, and inhibitor at various concentrations (final DMSO concentration not more than 1% v/v of assay mix). The reaction was incubated at 4°C for 1 h, before analysis on a HPLC system. The substrate (m3T) and the demethylated product (thymidine) were separated using a Zorbax C18 column (4.6 mm x 250 mm) with a […]
flow rate of 1 mL/min at room temperature.
The percentage inhibition was estimated based on the peak areas of the 3-methylthymidine substrate and the thymidine product. For IC50 determination, eight different concentrations of […]
the variation in percentage demethylation at different inhibitor concentrations, using nonlinear regression, with normalized dose-response fit on GraphPad Prism 6.0™.
HPLC-based assay for FTO was also performed using an m6A-ssRNA as substrate. The assay was modified from previously reported method.[21] All reaction conditions are as described for the inhibition of m3T demethylation above, except that a 15-mer ssRNA with the sequence 5’-CUUGUCA(m6A)CAGCAGA-3’ (Yale University, W.M. Keck Foundation Biotechnology Resource Laboratory) was used as substrate (10 µM). The reaction was analysed on a bio-inert HPLC system. The m6A-ssRNA substrate and the corresponding demethylated product were separated using a Dionex DNAPac PA200 anion-exchange

[7] = HPLC-based demethylase assay, m3T substrate, read-out: IC50 (FTO)

T4 sequence (Q6P6C2 66-292): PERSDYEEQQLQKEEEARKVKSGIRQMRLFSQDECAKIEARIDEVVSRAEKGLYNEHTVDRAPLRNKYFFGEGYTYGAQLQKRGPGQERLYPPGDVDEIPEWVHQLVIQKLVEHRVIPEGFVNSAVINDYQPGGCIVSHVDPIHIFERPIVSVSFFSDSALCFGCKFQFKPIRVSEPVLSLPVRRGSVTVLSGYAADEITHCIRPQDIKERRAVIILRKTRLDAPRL
T3 sequence (P05050 12-216): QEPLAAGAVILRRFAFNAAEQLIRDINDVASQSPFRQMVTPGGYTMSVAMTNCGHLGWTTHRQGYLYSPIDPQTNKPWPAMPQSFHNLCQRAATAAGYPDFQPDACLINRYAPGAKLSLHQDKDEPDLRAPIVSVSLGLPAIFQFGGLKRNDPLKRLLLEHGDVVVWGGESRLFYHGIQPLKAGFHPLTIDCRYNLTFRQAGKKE
T1 sequence (Q9C0B1 whole entry): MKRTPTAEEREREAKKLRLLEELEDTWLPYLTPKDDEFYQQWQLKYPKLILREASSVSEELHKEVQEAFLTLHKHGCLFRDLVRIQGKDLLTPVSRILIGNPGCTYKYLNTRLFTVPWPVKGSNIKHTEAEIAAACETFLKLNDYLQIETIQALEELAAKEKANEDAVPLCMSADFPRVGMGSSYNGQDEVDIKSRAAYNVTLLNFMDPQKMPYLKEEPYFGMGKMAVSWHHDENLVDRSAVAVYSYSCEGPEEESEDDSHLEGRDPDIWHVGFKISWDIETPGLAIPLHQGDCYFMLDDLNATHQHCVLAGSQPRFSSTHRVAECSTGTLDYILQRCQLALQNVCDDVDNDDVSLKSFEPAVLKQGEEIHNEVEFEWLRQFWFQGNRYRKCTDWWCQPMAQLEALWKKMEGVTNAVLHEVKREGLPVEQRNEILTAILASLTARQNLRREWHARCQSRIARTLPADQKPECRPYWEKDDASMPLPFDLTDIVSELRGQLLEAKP

Row | Compound | Tm shift (FTO) [1] [°C] | Tm shift (ALKBH2) [2] [°C] | Tm shift (AlkB) [3] [°C] | Tm shift (ALKBH5) [4] [°C] | Tm shift (ALKBH3) [5] [°C] | further results
1 | ATTGTGG(m6A)CUGCAGC: 15-mer m6A-containing ssRNA | 3.0 | 1.0 | 2.7 | 3.5 | 3.0 | 
2 | Cc1cn([C@H]2C[C@H](O)[C@@H](CO)O2)c(=O)n(C)c1=O [m3T, N ^3-methylthymidine] |  |  |  |  |  | ΔTm at 100 µM [1]: 12.1 °C; ΔTm at 100 µM [2]: 1.1 °C; ΔTm at 100 µM [3]: 1.4 °C; ΔTm at 100 µM [4]: 1.1 °C; ΔTm at 100 µM [5]: 1.3 °C
3 | ATTGTGG(m3T)CTGCAGC: 15-mer m3T-containing ssDNA | 3.0 | 1.5 | 3.1 | 2.6 | 2.9 | 
4 | ATTGTGG(A)CUGCAGC: unmethylated counterpart of the 15-mer m6A ssRNA | 3.4 | 1.2 | 2.4 | 3.6 | 3.5 | 
5 | NNC(=O)/C=C\C(=O)O [Compound 3, maleate hydrazide] |  |  |  |  |  | IC50 [6, 7]: > 100 µM
6 | NNC(=O)CCC(=O)O [Compound 1, succinate hydrazide] |  |  |  |  |  | IC50 [6, 7]: > 100 µM
7 | CNc1ncnc2c1ncn2[C@@H]1O[C@H](CO)[C@@H](O)[C@H]1O [m6A, N ^6-methyladenosine] |  |  |  |  |  | ΔTm at 100 µM [1]: 2.4 °C; ΔTm at 100 µM [2]: 1.3 °C; ΔTm at 100 µM [3]: 2.6 °C; ΔTm at 100 µM [4]: 9.8 °C; ΔTm at 100 µM [5]: 2.1 °C
8 | ATTGTGG(T)CTGCAGC: unmethylated counterpart of the 15-mer m3T ssDNA | 3.2 | 1.3 | 2.7 | 3.4 | 2.4 | 
9 | CN(C)NC(=O)CCC(=O)O [daminozide, reference compound] |  |  |  |  |  | IC50 [6]: > 100 µM
10 | O=C(O)/C=C/C(=O)NNC(=O)c1cnc2ccccc2c1 [Compound 8] |  |  |  |  |  | IC50 (FTO) ([6]; HPLC-based demethylase assay, m3T substrate): low micromolar range
11 | NNC(=O)/C=C/C(=O)O [Compound 2, fumarate hydrazide] |  |  |  |  |  | IC50 [6, 7]: > 100 µM
